Reference: the METLIN SMRT retention time set (Domingo-Almenara et al. 2019)

Test: gradient 5% acetonitrile 3 min, to 50% in 2 min, to 85% in 15 min, held 3 min, 100 µL/min
Settings: column: Zorbax Extend-C18 2.1 x 50 mm; eluents: water / acetonitrile, 0.1% formic acid
How it was run: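 A Zorbax Extend-C18 column (2.1 × 50 mm, 1.8 μm) run at 100 μL/min with water and acetonitrile, both containing 0.1% formic acid, separated mixtures of ~100 pure standards. The HPLC was coupled to a quadrupole time-of-flight mass spectrometer operated in positive and negative ionization mode, with dead and dwell volumes of 40 μL and 900 μL. Each retention time was taken from a computationally picked adduct peak that was then manually inspected.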

Structure (SMILES) | RP-LC retention time [s]
CC(C)(CO)NC(=O)Cc1ccc(NC(=O)c2ccc(Cl)s2)cc1 | 704
CCOC(=O)N1CCN(Cc2nc(-c3ccc(N4CCCCC4)nc3)no2)CC1 | 757
Cc1ccc2[nH]cc(CCNC(=O)NC3CCCCC3)c2c1 | 874
C=CCNc1nnc(SCC(=O)N2CCC(C(N)=O)CC2)s1 | 572
N#Cc1ccsc1NC(=O)c1cccc(Oc2ccccc2)c1 | 988
O=c1n(Cc2cccc(C(F)(F)F)c2)nc2c(S(=O)(=O)N3CCCCC3)cccn12 | 993
Cn1nc(C(=O)N2CCCC(C(=O)Nc3ccccc3)C2)c2c1CCN(C(=O)CCc1ccccc1)C2 (centres undefined) | 800
O=C1NCCCCCN(C(=O)c2cccs2)[C@H]2CCC[C@@H]12 | 698
Cc1nn(-c2ccc(N3CCOCC3)nn2)c(C)c1CCC(=O)NCCc1ccco1 | 661
Cc1cc(=O)n(CC(=O)Nc2ccc(C(C)C)cc2)c(N2CCOCC2)n1 | 774
CS(=O)(=O)N1CCCc2cc(C(=O)NCc3ccco3)ccc21 | 742
CN1CCN(c2ccc(-c3ccc(NC(=O)c4cc(Cl)ccc4Cl)cc3)nn2)CC1 | 646
COc1ccc(-c2noc(CN3N=NC4C(=O)N(c5ccc6c(c5)CCC6)C(=O)C43)n2)cc1OC (centres undefined) | 949
CCc1cccc(-n2nnnc2N2CCN(C(=O)Nc3ccc(C)c(F)c3)CC2)c1 | 981
O=C(c1ccc2c(c1)OCO2)N1CCC2(CC1)N=C(c1ccc(Cl)cc1)NO2 | 956
O=C(c1nnn2c1COC(c1ccccc1)C2)N1CCN(C(=O)c2cccc3[nH]ccc23)CC1 (centres undefined) | 792
O=C(NCc1ccco1)C(=O)c1cccn1Cc1ccc(F)cc1 | 962
CCn1cc(S(=O)(=O)N2CCC(C3CCN(C(=O)NC)CC3)C2)cn1 (centres undefined) | 622
CO[C@H]1C(=O)N(C2CCN(S(=O)(=O)Cc3ccccc3)CC2)[C@H]1c1ccncc1 | 632
CSc1ccc(C2C(C(=O)N3CCOCC3)=C(C)NC3=C2C(=O)CC(C)(C)C3)cc1 (centres undefined) | 696
CO[C@@H]1[C@@H](OC(N)=O)[C@H](O)[C@H](Oc2ccc3c(O)c(NC(=O)c4ccc(O)c(CC=C(C)C)c4)c(=O)oc3c2C)OC1(C)C | 979
Cc1cccc(-n2ncc3c(NCCCN4CCCC4=O)ncnc32)c1 | 682

Structure (SMILES) | RP-LC retention time [s]
O=C(NCc1ccco1)c1cc2c(s1)CCN(C(=O)c1ccc(Cl)cc1)C2 | 846
CCOCCCNC(=O)C1CCCN(c2nnc(C)c3c(C)n(-c4ccc(Cl)cc4)nc23)C1 (centres undefined) | 688
CC(C)N1CCN(C(=O)c2cn(-c3ccc(-c4nc(C(C)(C)C)no4)cn3)cn2)CC1 | 671
COc1cc(CC(=O)N2CCN(c3cc(C(C)C)n4cnnc4n3)CC2)cc(OC)c1 | 635
COC[C@@H]1CN(c2cnccn2)C[C@H]1C(=O)NCCn1ccnc1 | 498
CCc1ccc(C2=C(C)C(N3CCCN(C(=O)C(C)CC)CC3)=NS2(=O)=O)cc1 (centres undefined) | 888
CS(=O)(=O)c1ccc(Cl)c(NC(=O)c2cccnc2)c1 | 590
O=S(=O)(c1cccn2c(SCc3ccccc3F)nnc12)N1CCCC1 | 803
CC(O)c1ccc(-c2ccc(CNCCCn3ccnc3)o2)cc1 (centres undefined) | 513
Cc1nnsc1C(=O)OCc1cc(-c2ccco2)on1 | 850
Cc1ccccc1N1CCN(S(=O)(=O)c2cc3n(c2)CCCNC3=O)CC1 | 788
CCCNC(=O)C1CCCN(c2ccc(SCC(=O)Nc3ccc(C)c(C)c3)nn2)C1 (centres undefined) | 678
Cc1cc(S(=O)(=O)N2CCC(OCc3noc(C4CCCO4)n3)CC2)ccc1Cl (centres undefined) | 1040
Cn1c(=O)c2c(nc3n(-c4ccccc4N)c(-c4ccc(Cl)cc4)cn23)n(C)c1=O | 883
O=C([C@@H]1C[C@H](F)CN1S(=O)(=O)c1ccc(Cl)s1)N1CCc2ccccc2C1 | 955
Cc1cc(C)cc(NC(=O)c2cn3c(n2)CCCC3)c1 | 644
O=C(N[C@H]1C[C@@H]2C[C@H]1N(S(=O)(=O)c1cc(F)cc(F)c1)C2)c1cccs1 | 720
C[C@H]1CN(C(=O)Nc2cc(F)cc(F)c2)C[C@@H]1c1nc(-c2ccncc2)no1 | 883
COC(=O)c1scc(-c2ccccc2)c1S(=O)(=O)N1CCN(c2ccccn2)CC1 | 729
CCn1cc(CN2CCC(N3CC4(CCCCC4)C3c3ccncc3)CC2)cn1 (centres undefined) | 565
Cc1cc(C)cc(NC(=O)C2CCCN2S(=O)(=O)c2ccc3c(c2)CCCC(=O)N3)c1 (centres undefined) | 835

Second part, the molecule after the results:

RP-LC retention time [s] | Structure (SMILES)
647 | O=C(NCCCN1CCCC1=O)c1ccc2ccnc(N3CCN(c4ccc(F)cc4)CC3)c2c1
851 | Cc1ccc2ncn(C3CCN(C(=O)Nc4ccc(C)c(F)c4)CC3)c(=O)c2c1
742 | COc1ccc(CNC(=O)Cn2c(=O)c3cc(C4CC4)nn3c3ncccc32)cc1
987 | CCc1nnc(-c2ccc3ccn(CC(=O)N4CCN(c5cccc(Cl)c5)CC4)c3c2)o1
1060 | CCCCN1C(=O)C(C)(C(=O)Nc2ccc(C)cc2)Oc2cccnc21 (centres undefined)
1170 | COc1cc(NC(=O)c2ccc(-c3ccc(Cl)cc3)o2)cc(OC)c1
907 | CSc1ncccc1C(=O)N1CCCC1c1nc(-c2ccc(F)cc2F)no1 (centres undefined)
837 | CCn1c(=O)c(C)nc2cc(-c3noc(C4CC(=O)N(c5ccccc5)C4)n3)ccc21 (centres undefined)
834 | CN1C(=O)c2cccnc2Sc2cc(NC(=O)Cc3ccc(F)cc3)ccc21
1070 | CCn1cc(-c2nc(C)c(C(=O)Nc3ccc(F)c(F)c3)s2)c2cccnc21
570 | O=C(Cn1cnc(-c2cccs2)cc1=O)NCc1nc2ccccc2[nH]1
816 | Cc1ccc(Cn2nccc2NC(=O)c2cc(=O)c3ccccc3o2)cc1
796 | Nc1sc(SCC(=O)NCc2ccc(F)cc2)nc1-c1ccccc1
1090 | COc1ccc(-c2noc(-c3nc(C4CC4)no3)n2)cc1
1290 | CCCCOc1ccc(-c2ccc(=O)n(Cc3nc(-c4ccc(F)cc4)no3)n2)cc1
878 | O=C(CCSc1nnc2ccc3ccccc3n12)Nc1ccc(F)cc1
985 | Cc1nc2c(sc3nc(-c4ccccc4)ccc32)c(=O)n1CC(=O)Nc1ccc2c(c1)OCO2
884 | CCOC(=O)CCNC(=O)C1CCCN(c2nccnc2Oc2ccc(C)cc2)C1 (centres undefined)
1140 | Cc1ccc(Oc2nccnc2N2CCCC(C(=O)NCc3ccc(C)c(C)c3)C2)cc1 (centres undefined)
780 | Cc1ccc(CNC(=O)N2CCN(c3ncccc3-c3nnc(C4CC4)o3)CC2)cc1
777 | CCn1ccc(C(=O)NC2CCN(C3=NS(=O)(=O)C(c4ccc(F)cc4)=C3C)CC2)n1
